This is an account of results in publication PMC3848335, “Structure–Activity Relationships and Molecular Modeling of Sphingosine Kinase Inhibitors” (Journal of Medicinal Chemistry, 2013).

Entries after “also recorded” stand apart in the source; their conditions may differ.

Test [1] concerns the target T1, SK1 (Homo sapiens, UniProt Q9NYA1). Kind of test: SK1 activity assay (inhibition; [γ-32P]ATP, recombinant SK1 in HEK 293 cell lysates). In kind it is biochemical. Details: made in house; host or cells: HEK 293 cells (lysate, not purified). The settings on record: for SK1 inhibition (in words): 3 μM Sph, 250 μM ATP (Figure 3); for isoform selectivity SK1 vs SK2 (in words): comparison of inhibition of SK1 (3 μM Sph) and SK2 (10 μM Sph).

Test [2] addresses T2, SK2 (Homo sapiens, UniProt Q9NRA0).
T2 sequence (Q9NRA0 1-654): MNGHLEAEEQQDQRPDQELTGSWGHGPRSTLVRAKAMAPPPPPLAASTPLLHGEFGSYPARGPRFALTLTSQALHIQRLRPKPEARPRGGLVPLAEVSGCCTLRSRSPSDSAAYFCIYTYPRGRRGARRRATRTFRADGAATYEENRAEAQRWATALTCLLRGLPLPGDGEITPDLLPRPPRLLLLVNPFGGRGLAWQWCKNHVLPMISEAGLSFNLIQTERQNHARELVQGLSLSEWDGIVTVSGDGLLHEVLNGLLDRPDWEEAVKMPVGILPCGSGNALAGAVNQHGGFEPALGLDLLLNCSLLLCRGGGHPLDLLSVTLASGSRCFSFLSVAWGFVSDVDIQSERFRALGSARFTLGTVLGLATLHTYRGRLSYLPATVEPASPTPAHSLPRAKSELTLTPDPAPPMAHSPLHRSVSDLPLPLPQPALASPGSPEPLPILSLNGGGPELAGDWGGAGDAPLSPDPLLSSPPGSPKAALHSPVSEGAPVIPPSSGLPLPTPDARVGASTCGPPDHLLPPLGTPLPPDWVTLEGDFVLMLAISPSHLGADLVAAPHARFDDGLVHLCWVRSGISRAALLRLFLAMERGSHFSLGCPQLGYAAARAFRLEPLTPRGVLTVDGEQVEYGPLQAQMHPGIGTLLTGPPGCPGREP
As to the kind of experiment: Evaluation of compounds as putative substrates of SK2 (absence of Sph). The settings on record: 50 μM compound, 250 μM ATP, absence of Sph (Fig. S1).

For test [3], the target named is T1, SK1. As to the kind of experiment: Evaluation of compounds as putative substrates of SK1 (absence of Sph). To be noted: 50 μM compound, 250 μM ATP.
In test [4] the target is T2, SK2. Kind of test: SK2 activity assay (inhibition; [γ-32P]ATP, purified SK2). It counts as biochemical. The settings on record: 50 μM compound, 10 μM Sph, 250 μM ATP (Figure 3). On the procedure:
To examine SAR among a panel of related compounds, we prepared a series of analogues bearing a 4-hydroxypiperidinyl group but varied the linker length between the aryl group and the piperidine. We also assessed the role of the alkyl substituent in the aryl group.
Figure 3 Effect of inhibitors on SK1 or SK2 activity. SK1 activity was measured using 3 μM Sph and 250 μM ATP. SK2 activity was assayed using 10 μM Sph and 250 μM ATP (n = 3 for each compound; results are expressed as % of control ± SD). […]. The control is 100% and equals activity against Sph alone.
Sphingosine kinase activity assays.
For SK2 activity assays, sphingosine (Sph) was complexed with fatty acid free bovine serum albumin (final concentration, 0.2 mg/mL) in reaction buffer 1 containing 20 mM Tris (pH 7.4), 1 mM EDTA, 1 mM Na3VO4, 40 mM β−glycerophosphate, 1 mM NaF, 0.007% (v/v) β6mercaptoethanol, 20% (v/v) glycerol, 10 µg/mL aprotinin, 10 µg/mL soybean trypsin inhibitor, 1 mM PMSF, 0.5 mM 46 deoxypyridoxine, and 400 mM KCl. Inhibition of SK2 activity was determined by incubating 37 ng of purified SK2 for 30 min at 30 °C in the presence of 10 µM Sph, 250 µM of [γ632P]ATP (specific activity, 4.4×10^4 cpm/nmol) in 10 mM MgCl2, and varying concentrations of the inhibitors dissolved in DMSO or control (5% v/v DMSO). […]
Compounds bearing hydroxyl groups were assessed for their ability to act as substrates for SK1 and […]

T1 sequence (Q9NYA1 whole entry, canonical isoform): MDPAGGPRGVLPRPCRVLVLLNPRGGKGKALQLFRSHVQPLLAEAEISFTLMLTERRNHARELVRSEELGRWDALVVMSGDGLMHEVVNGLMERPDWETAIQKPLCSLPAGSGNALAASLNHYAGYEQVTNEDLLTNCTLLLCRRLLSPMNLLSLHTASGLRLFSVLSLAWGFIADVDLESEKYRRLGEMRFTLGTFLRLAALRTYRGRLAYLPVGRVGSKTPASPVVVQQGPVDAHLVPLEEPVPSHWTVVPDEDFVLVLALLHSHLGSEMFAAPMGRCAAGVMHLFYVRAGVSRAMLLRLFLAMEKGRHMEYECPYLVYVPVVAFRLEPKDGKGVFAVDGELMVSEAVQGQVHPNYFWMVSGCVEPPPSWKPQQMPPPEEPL

With `CCCCCCCCc1ccc(CCN2CCC[C@H]2CO)cc1` [RB-041, (S)-(1-(4-Octylphenethyl)pyrrolidin-2-yl)methanol], the “SK1 inhibition (in words)” value in test [1] (50 μM compound) was “much less active”. The “substrate for SK2 (in words)” value in test [2] is reported as “weak substrates for SK2”.

With “1-Methyl-4-(4-octylphenethyl)pyridinium Iodide [RB-052]”, the “SK1 inhibition (in words)” value in test [1] (50 μM compound) is listed as “ineffective as SK inhibitors”.

Turning to `CCCCCCCCc1ccc(CCN2CCC(N)CC2)cc1` [RB-032, 1-(4-Octylphenethyl)piperidin-4-amine], the “SK1 inhibition (in words)” value in test [1] (50 μM compound) is on record as “diminished the potency of SK1 inhibition”. Moreover, the “isoform selectivity SK1 vs SK2 (in words)” value (shortened to “isoform selectivity SK1”) in test [1] is “isoform selectivity of SK1 over SK2 was retained”.

On to `Cc1ccc(CCN2CCC[C@@H]2CO)cc1` [RB-039, (R)-(1-(4-Methylphenethyl)pyrrolidin-2-yl)methanol], for which, in test [1] (50 μM compound), the “SK1 inhibition (in words)” value is listed as “abolished”.

As to `CCCCCCCCc1ccc(CCN2CCC[C@@H]2CO)cc1` [RB-040, (R)-(1-(4-Octylphenethyl)pyrrolidin-2-yl)methanol], the “isoform selectivity SK1” value in test [1] is “equipotent inhibitors of SK1 and SK2”.

With `Cc1ccc(CCN2CCC(O)CC2)cc1` [RB-026, 1-(4-Methylphenethyl)piperidin-4-ol], in test [1] (50 μM compound), the “decrease of SK1 inhibition compared with RB-023” value is recorded as “more than 6 fold” and the “SK1 inhibition (in words)” value is on record as “almost complete lack of inhibition”.

On to `Cc1ccc(CCN2CCC(N=[N+]=[N-])CC2)cc1` [RB-029, 4-Azido-1-(4-methylphenethyl)piperidine], for which the “SK1 inhibition (in words)” value in test [1] (50 μM compound) is “reduced SK1 inhibition markedly”.

As for `CCCCCc1cn(-c2ccc(CC[N+]3(C)CCCCC3)cc2)nn1.CS(=O)(=O)[O-]` [RB-061, 1-Methyl-1-(4-(4-pentyl-1H-1,2,3-triazol-1-yl)phenethyl)piperidinium Methanesulfonate], in test [1] (50 μM compound), the “SK1 inhibition (in words)” value is given as “ineffective as SK inhibitors”.

With `CCCCCCCCc1ccc(CCCN2CCC(O)CC2)cc1` [RB-024, 1-(3-(4-Octylphenyl)propyl)piperidin-4-ol], the “SK1 inhibition (in words)” value in test [1] (50 μM compound) is recorded as “did not significantly alter”.

With `CCCCCCCCc1ccc(C(=O)NCc2ccncc2)cc1` [RB-048, 4-Octyl-N-(pyridin-4-ylmethyl)benzamide], the “SK1 inhibition (in words)” value in test [1] (50 μM compound) is given as “effectively abolished”.

Turning to `CCCCCCCCc1cn(-c2ccc(CC[N+]3(C)CCCCC3)cc2)nn1.CS(=O)(=O)[O-]` [RB-062, 1-Methyl-1-(4-(4-octyl-1H-1,2,3-triazol-1-yl)phenethyl)piperidinium Methanesulfonate], the “SK1 inhibition (in words)” value in test [1] (50 μM compound) is “ineffective as SK inhibitors”.

As to `CCCCCCCCCCCCc1ccc(CCN2CCC(O)CC2)cc1` [RB-028, 1-(4-Dodecylphenethyl)piperidin-4-ol], the “substrate for SK1 (in words)” value in test [3] was “not substrates for SK1”.

For `CCCCCCCCc1ccc(CCCCN2CCC(O)CC2)cc1` [RB-025, 1-(4-(4-Octylphenyl)butyl)piperidin-4-ol], the “SK1 inhibition (in words)” value in test [1] (50 μM compound) was “did not significantly alter”. For the same compound, in test [3], the “substrate for SK1 (in words)” value is “not substrates for SK1”.

For the compound `CCCCCCCCc1cn(-c2ccc(CCN3CCC(O)CC3)cc2)nn1` [RB-065], the “isoform selectivity SK1” value in test [1] was “highly selective SK1 inhibitor”.

`CCCCCCCCCCCCc1ccc(CCN2CCC[C@@H]2CO)cc1` [RB-042, (R)-(1-(4-Dodecylphenethyl)pyrrolidin-2-yl)methanol]: the “isoform selectivity SK1” value in test [1] was “equipotent inhibitors of SK1 and SK2”.

`CCCCCCCCc1ccc(CCN2CC[C@H](O)C2)cc1` [RB-037, (S)-1-(4-Octylphenethyl)pyrrolidin-3-ol]: the “SK1 inhibition (in words)” value in test [1] (50 μM compound) is reported as “retained inhibitory activity against SK1”. For the same compound, the “substrate for SK2 (in words)” value in test [2] was “weak substrates for SK2”.

Take `CCCCc1cn(-c2ccc(CC[N+]3(C)CCCCC3)cc2)nn1.CS(=O)(=O)[O-]` [RB-060, 1-(4-(4-Butyl-1H-1,2,3-triazol-1-yl)phenethyl)-1-methylpiperidinium Methanesulfonate]: the “SK1 inhibition (in words)” value in test [1] (50 μM compound) was “ineffective as SK inhibitors”.

In the case of 4-(4-Octylphenethyl)pyridine [RB-051], the “SK1 inhibition (in words)” value in test [1] (50 μM compound) is listed as “effectively abolished”.

For `CCCCCCCCc1ccc(CCN2CCC(OC)CC2)cc1` [RB-036, 4-Methoxy-1-(4-octylphenethyl)piperidine], the “SK1 inhibition (in words)” value in test [1] (50 μM compound) is “eliminated inhibitory activity against SK1”.

For `CCCCCCCCc1ccc(CN2CCC(O)CC2)cc1` [RB-023, 1-(4-Octylbenzyl)piperidin-4-ol], the “SK1 inhibition (in words)” value in test [1] (50 μM compound) is reported as “did not significantly alter”.

Regarding `CCCCCCCCc1ccc(C[n+]2ccc(N3CCC(C)CC3)cc2)cc1.[Br-]` [RB-053, 4-(4-Methylpiperidin-1-yl)-1-(4-octylbenzyl)pyridinium Bromide], in test [1] (50 μM compound), the “SK1 inhibition (in words)” value was “ineffective as SK inhibitors”. The “isoform selectivity SK1” value in test [1] is “moderate selectivity for SK2”.

In the case of `CCCCCCCCc1ccc(CCN2CCC(N=[N+]=[N-])CC2)cc1` [RB-030, 4-Azido-1-(4-octylphenethyl)piperidine], the “SK1 inhibition (in words)” value in test [1] (50 μM compound) was “reduced SK1 inhibition markedly”.

On to `Cc1ccc(CCN2CCC(N)CC2)cc1` [RB-031, 1-(4-Methylphenethyl)piperidin-4-amine], for which the “SK1 inhibition (in words)” value in test [1] (50 μM compound) is “eliminated the inhibitory activity toward SK1”.

`CCCCCCCCc1ccc(CCN2CC[C@@H](O)C2)cc1` [RB-038, (R)-1-(4-Octylphenethyl)pyrrolidin-3-ol]: the “SK1 inhibition (in words)” value in test [1] (50 μM compound) is given as “retained inhibitory activity against SK1”.

For `CCCCCCCCCCCCc1ccc(CCN2CCC[C@H]2CO)cc1` [RB-043, (S)-(1-(4-Dodecylphenethyl)pyrrolidin-2-yl)methanol], the “SK1 inhibition (in words)” value in test [1] (50 μM compound) is listed as “much less active; also recorded: abolished”. Also, the “substrate for SK2 (in words)” value in test [2] is “weak substrates for SK2”.

As to `CCCCCCCCc1ccc(CCN2CCC(=O)CC2)cc1` [RB-035, 1-(4-Octylphenethyl)piperidin-4-one], in test [4], the “SK2 inhibition (in words)” value is on record as “increased inhibition of SK2”. Besides, the “SK1 inhibition (in words)” value in test [1] (50 μM compound) is “maintained inhibition of SK1”. Besides, in test [1], the “isoform selectivity SK1” value is listed as “eliminated the isoform selectivity”.

`CCCCCCCCCCCCc1ccc(CCN2CCC(N)CC2)cc1` [RB-033, 1-(4-Dodecylphenethyl)piperidin-4-amine]: in test [1] (50 μM compound), the “SK1 inhibition (in words)” value was “eliminated the inhibitory activity toward SK1”.

With `CCCCCCCCc1ccc(CCN2CCC(F)CC2)cc1` [RB-034, 4-Fluoro-1-(4-octylphenethyl)piperidine], in test [1] (50 μM compound), the “SK1 inhibition (in words)” value was “eliminated inhibitory activity against SK1”.
